Results reported in ChEMBL document CHEMBL4219170, “Design, synthesis and biological evaluation of anti-pancreatic cancer activity of plinabulin derivatives based on the co-crystal structure” (Bioorg Med Chem, 2018).
Values after ≈ are worked out from the molar mass of the structure shown. Active and inactive are the calls of the source. The calls are words filed in the database; no cut-off is given here.

Key:
[1] = Solubility of the compound in water after 24 hrs by HPLC analysis; format: physicochemical
BXPC-3 [2] = assay: Antiproliferative activity against human BxPC3 cells after 72 hrs by sulforhodamine B assay; format: functional, cell-based; conditions: BXPC-3, 72 h
BXPC-3 [3] = assay: Antiproliferative activity against human BxPC3 cells at 12.5 nM after 72 hrs by MTT assay relative to control; format: functional
Tubulin (Homo sapiens) = Tubulin (Homo sapiens) (UniProt P68371+Q9H4B7+P0DPH7+P68366+Q13509+Q71U36+P04350+Q3ZCM7+P07437+P68363+Q9BQE3+Q6PEY2+Q13885+Q9BVA1+Q9BUF5); assay: Inhibition of tubulin polymerization (unknown origin) at 5 uM after 1 min in presence of GTP by fluorescence-based assay relative to control; format: protein-complex assay
Homo sapiens = species on record: Homo sapiens; assay: Inhibition of beta-tubulin polymerization in human BxPC3 cells at 5 nM after 24 hrs by DAPI staining-based fluorescence microscopic analysis; format: cell-based

SMILES	solubility [1] [µg/mL]	IC50 (BXPC-3 [2]) [µM]	Activity (BXPC-3 [3]) [%]	inhibition (Tubulin (Homo sapiens)) [%]	inhibition (Homo sapiens)
CC(C)(C)c1[nH]cnc1/C=c1\[nH]c(=O)/c(=C/c2cccc(C(=O)N3CCC3)c2)[nH]c1=O	4.231 (≈ 10.1 µM)	> 0.5	–	–	–
CC(C)(C)c1[nH]cnc1/C=c1\[nH]c(=O)/c(=C/c2cccc(C(=O)N3CCOCC3)c2)[nH]c1=O	1.79 (≈ 3.98 µM)	0.257	–	–	–
O=C(c1ccccc1)c1cccc(/C=c2\[nH]c(=O)/c(=C/c3ccccn3)[nH]c2=O)c1	< 0.1	0.00627	85	–	–
CC(C)(C)c1[nH]cnc1/C=c1\[nH]c(=O)/c(=C/c2cccc(C(=O)c3ccccn3)c2)[nH]c1=O	< 0.1	0.00758	–	36.6	–
CC(C)(C)c1[nH]cnc1/C=c1\[nH]c(=O)/c(=C/c2cccc(C(=O)c3ccncc3)c2)[nH]c1=O	< 0.1	0.0238	–	34.1	–
CC(C)(C)c1[nH]cnc1/C=c1\[nH]c(=O)/c(=C/c2cccc(C(=O)c3cccs3)c2)[nH]c1=O	< 0.1	0.00172	–	46.4	–
CC(C)(C)c1[nH]cnc1/C=c1\[nH]c(=O)/c(=C/c2cccc(C(=O)c3cccnc3)c2)[nH]c1=O	< 0.1	0.00405	–	28.8	–
O=C(c1cccc(/C=c2\[nH]c(=O)/c(=C/c3ccccn3)[nH]c2=O)c1)N1CCC1	0.662 (≈ 1.77 µM)	> 0.5	–	–	–
CC(C)(C)c1[nH]cnc1/C=c1\[nH]c(=O)/c(=C/c2cccc(C(=O)N3CCCC3)c2)[nH]c1=O	0.454 (≈ 1.05 µM)	0.325	–	–	–
CC(C)(C)c1[nH]cnc1/C=c1\[nH]c(=O)/c(=C/c2ccccc2)[nH]c1=O [PLINABULIN]	< 0.1	0.00428	–	18.3	Active
CC(C)(C)c1[nH]cnc1/C=c1\[nH]c(=O)/c(=C/c2cccc(C(=O)c3ccc[nH]3)c2)[nH]c1=O	–	> 0.1	–	–	–
CC(C)(C)c1[nH]cnc1/C=c1\[nH]c(=O)/c(=C/c2cccc(C(=O)N3CCCCC3)c2)[nH]c1=O	< 0.1	0.1	–	–	–
CN1CCN(C(=O)c2cccc(/C=c3\[nH]c(=O)/c(=C/c4ccccn4)[nH]c3=O)c2)CC1	16.302 (≈ 39 µM)	> 0.5	–	–	–
CC(C)(C)c1[nH]cnc1/C=c1\[nH]c(=O)/c(=C/c2cccc(C(=O)c3ccsc3)c2)[nH]c1=O	< 0.1	0.00156	–	39.3	–
CC(C)(C)c1[nH]cnc1/C=c1\[nH]c(=O)/c(=C/c2cccc(C(=O)c3cc[nH]c3)c2)[nH]c1=O	–	> 0.1	–	–	–
CC(C)(C)c1[nH]cnc1/C=c1\[nH]c(=O)/c(=C/c2cccc(C(=O)c3cncs3)c2)[nH]c1=O	< 0.1	0.0171	–	19.9	–
CC(C)(C)c1[nH]cnc1/C=c1\[nH]c(=O)/c(=C/c2cccc(C(=O)c3ccccc3)c2)[nH]c1=O	< 0.1	–	–	–	–
CN1CCN(C(=O)c2cccc(/C=c3\[nH]c(=O)/c(=C/c4nc[nH]c4C(C)(C)C)[nH]c3=O)c2)CC1	85.568 (≈ 185 µM)	> 0.5	–	–	–
CC(C)(C)c1[nH]cnc1/C=c1\[nH]c(=O)/c(=C/c2cccc(C(=O)c3ccco3)c2)[nH]c1=O	< 0.1	0.00923	–	–	–
CC(C)(C)c1[nH]cnc1/C=c1\[nH]c(=O)/c(=C/c2cccc(C(=O)c3ccoc3)c2)[nH]c1=O	< 0.1	0.00941	–	–	–
O=C(c1cccc(/C=c2\[nH]c(=O)/c(=C/c3ccccn3)[nH]c2=O)c1)N1CCCCC1	< 0.1	> 0.5	–	–	–
